Data on one molecule can be found in patent US9907859B2 (priority 2010, dated 2018).

For one data set, the system named is vaccinia virus (VV). To be noted: in vitro, read-out: 50% effective concentration [EC50], inhibition of virus replication; cited from earlier work.
For data set [1] the following is noted: both, cynomolgus monkey, in vivo; for AUCINF—obs / Cmax / CL / T1/2 / Tmax: iv.
Another data set in a line: physchem. Conditions: 37 °C, aqueous with cosolvent or surfactant or cyclodextrin, range of ST-246 solubilized by cyclodextrin.

Converted amounts (≈) assume the structure as drawn. Like-named read-outs stand apart in the source and are kept apart here.

Broadly, the Cmax is the maximum level reached in the sampled fluid or tissue. Broadly, the Tmax is the time at which the peak concentration occurs. A word on the solubility: it is how much of the substance goes into solution per volume. `O=C(NN1C(=O)C2C3C=CC(C4CC34)C2C1=O)c1ccc(C(F)(F)F)cc1` (stereo not shown) [ST-246, 4-trifluoromethyl-N-(3,3a,4,4a,5,5a,6,6a-octahydro-1,3-dioxo-4,6-ethenocycloprop[f]isoindol-2(1H)-yl)-benzamide]: in the data set with vaccinia virus (VV), the EC50 was not above 70 nM. Further, in data set [1], the “Cmax higher for 4 hour vs 6 hour infusions” value was “approximately 50%”, the “exposure higher for 4 hour vs 6 hour infusions” value is reported as “approximately 20%” and the terminal elimination half-life is 9.1 h. Moreover, in data set [1] (1 mg/kg), the “AUCINF—obs” value turned out to be 1940 ± 460 ng·h/mL and the Cmax amounted to 384 ± 112 ng/mL. Further, in data set [1] (3 mg/kg), the “AUCINF—obs” value was found to be 5830 ± 870 ng·h/mL and the Cmax came out at 1050 ± 190 ng/mL. In data set [1] (10 mg/kg), this molecule showed a CL of 7.15 ± 1.23 mL/min/kg and a T1/2 of 8.9 ± 2.5 h. Further, in data set [1] (15 mg/kg), the “AUCINF—obs” value was found to be 48700 ± 7500 ng·h/mL and the Cmax was determined as 9080 ± 950 ng/mL. Further, in data set [1] (20 mg/kg), the “AUCINF—obs” value turned out to be 47900 ± 6100 ng·h/mL, the CL is 7.22 ± 0.883 mL/min/kg, the Cmax came to 7480 ± 400 ng/mL and the Tmax worked out at 6 h. Also, in data set [1] (30 mg/kg), the “AUCINF—obs” value is 87200 ± 14600 ng·h/mL, the CL came out at 6.03 ± 1.02 mL/min/kg, the Cmax was 13900 ± 1300 ng/mL and the T1/2 was determined as 6.9 ± 0.8 h. The Tmax in data set [1] (30 mg/kg) came to 6 h. Also, in the data set “physchem”, the solubility lay within 1500 to 11000 µg/mL (≈ 3.99 to 29.2 mM).
